Measurements as given in ChEMBL document CHEMBL1201862, “PubChem BioAssay data set” (2004).
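A five-concentration, 48-hour dose response in 96-well plates underlies each endpoint, interpolated linearly between surrounding concentrations. GI50 is the concentration that inhibits growth by half.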 Active and inactive are the calls of the source. Rule as the data show it: active = GI50 up to about 1.1 µM and inactive = higher.

Legend:
Assay in all cases: DTP human tumour cell line panel, 48 h
CCRF-CEM = tested on: CCRF-CEM
HCT-15 = tested on: HCT-15
HT-29 = tested on: HT-29
M14 = tested on: M14
Malme-3M = tested on: Malme-3M
SF-268 = tested on: SF-268
SK-MEL-28 = tested on: SK-MEL-28
SK-MEL-5 = tested on: SK-MEL-5
SN12C = tested on: SN12C
SNB-19 = tested on: SNB-19
SNB-75 = tested on: SNB-75
SW-620 = tested on: SW-620
UO-31 = tested on: UO-31
COLO 205 = tested on: COLO 205
HOP-92 = tested on: HOP-92
IGROV-1 = tested on: IGROV-1

Measured: GI50

COc1ccc(C[C@@H]2Cc3cc(OC)c(OC)cc3CN2C)cc1
> 100 µM: HCT-15
inactive: CCRF-CEM > 100 µM | HT-29 > 100 µM | M14 > 100 µM | Malme-3M > 100 µM | SF-268 > 100 µM | SK-MEL-28 > 100 µM | SK-MEL-5 > 100 µM | SN12C > 100 µM | SNB-19 > 100 µM | SNB-75 > 100 µM | SW-620 > 100 µM | UO-31 > 100 µM

CCOc1ccc(/N=N/c2ccc3oc(=O)c(/C(C)=N/NC(=O)CC(=O)Nc4cccc(OC)c4)cc3c2)cc1
inactive: CCRF-CEM 3.16 µM | COLO 205 28.1 µM | HOP-92 19.1 µM | IGROV-1 23.6 µM | M14 16.4 µM | Malme-3M 16.8 µM | SF-268 13.3 µM | SK-MEL-28 20.8 µM | SK-MEL-5 20.2 µM | SN12C 15.6 µM | SNB-19 12.2 µM | SW-620 21.4 µM | UO-31 12.3 µM
30.3 µM: HCT-15

O=S(=O)(OI(OI(OS(=O)(=O)C(F)(F)F)c1ccccc1)c1ccccc1)C(F)(F)F
inactive: CCRF-CEM 13.9 µM | COLO 205 51.2 µM | IGROV-1 55.8 µM | M14 43 µM | Malme-3M 11.7 µM | SF-268 31.3 µM | SK-MEL-5 13.5 µM | SN12C 49.8 µM | SNB-19 44.3 µM | SNB-75 60.8 µM | SW-620 32 µM | UO-31 47.2 µM
> 100 µM: HCT-15

Cc1ccc(C2=CC(=O)c3ccccc3C2=O)n1-c1ccccc1
inactive: CCRF-CEM 23 µM | COLO 205 > 100 µM | HT-29 > 100 µM | IGROV-1 > 100 µM | M14 > 100 µM | SF-268 > 100 µM | SK-MEL-28 > 100 µM | SK-MEL-5 > 100 µM | SN12C > 100 µM | SNB-19 35.6 µM | SNB-75 > 100 µM | SW-620 > 100 µM

CN(C)c1ccc2c(NCCCCCCNc3ccnc4cc(N(C)C)ccc34)ccnc2c1
inactive: CCRF-CEM 12.7 µM | HT-29 19.2 µM | M14 22.6 µM | Malme-3M 2.85 µM | SF-268 28 µM | SK-MEL-28 14.3 µM | SK-MEL-5 12.2 µM | SN12C 6.79 µM | SW-620 23.3 µM | UO-31 32.3 µM
> 100 µM: HCT-15
active: SNB-19 0.605 µM

COC(=O)/C(C#N)=C1\CCC(C(=O)OC)N1C (stereo not drawn)
inactive: CCRF-CEM > 100 µM | COLO 205 > 100 µM | HOP-92 > 100 µM | IGROV-1 > 100 µM | M14 > 100 µM | SF-268 > 100 µM | SK-MEL-28 > 100 µM | SK-MEL-5 > 100 µM | SN12C > 100 µM | SNB-19 > 100 µM | SNB-75 > 100 µM | UO-31 > 100 µM
> 100 µM: HCT-15

O=c1c2cc(Br)ccc2nc(-c2ccccc2Cl)n1NCC1(O)OCC(O)C(O)C1O (stereo not drawn)
> 100 µM: HCT-15
inactive: CCRF-CEM 46.7 µM | COLO 205 > 100 µM | HT-29 > 100 µM | M14 > 100 µM | Malme-3M > 100 µM | SF-268 > 100 µM | SK-MEL-28 > 100 µM | SK-MEL-5 > 100 µM | SN12C > 100 µM | SNB-19 > 100 µM | SNB-75 > 100 µM | SW-620 > 100 µM | UO-31 > 100 µM

Cc1cccc(N2C(=O)C(=O)C(c3nc4ccccc4s3)/C(=N/NC(=S)NN)C2=O)c1C (stereo not drawn)
inactive: COLO 205 > 100 µM | HOP-92 > 100 µM | IGROV-1 > 100 µM | M14 > 100 µM | Malme-3M > 100 µM | SF-268 > 100 µM | SK-MEL-28 > 100 µM | SK-MEL-5 > 100 µM | SN12C > 100 µM | SNB-19 > 100 µM | SNB-75 > 100 µM | SW-620 > 100 µM | UO-31 > 100 µM
> 100 µM: HCT-15

COc1cc(OC)c(C2CC=Cc3c(OC)cc(OC)c(OC)c32)cc1OC (stereo not drawn)
inactive: CCRF-CEM > 100 µM | COLO 205 > 100 µM | HOP-92 > 100 µM | HT-29 > 100 µM | IGROV-1 > 100 µM | M14 > 100 µM | Malme-3M > 100 µM | SF-268 > 100 µM | SK-MEL-28 > 100 µM | SK-MEL-5 > 100 µM | SN12C > 100 µM | SNB-75 > 100 µM | SW-620 > 100 µM | UO-31 > 100 µM
> 100 µM: HCT-15

COc1c(C(=O)c2ccc([N+](=O)[O-])cc2)cc(C(C)(C)C)cc1C(C)(C)C
inactive: CCRF-CEM 26.7 µM | HT-29 28.7 µM | IGROV-1 72.4 µM | M14 22.9 µM | Malme-3M 26.5 µM | SF-268 34.4 µM | SK-MEL-28 22.8 µM | SK-MEL-5 15.6 µM | SN12C 39 µM | SNB-19 48.5 µM | SNB-75 74.5 µM | SW-620 48.6 µM | UO-31 40.8 µM
32 µM: HCT-15

COc1cc2ccn3c4cc(OC)c(OC)cc4cc3c2cc1OC
inactive: CCRF-CEM > 100 µM | COLO 205 > 100 µM | HOP-92 > 100 µM | HT-29 > 100 µM | M14 63.1 µM | Malme-3M > 100 µM | SF-268 > 100 µM | SK-MEL-28 > 100 µM | SN12C > 100 µM | SNB-19 > 100 µM | SNB-75 > 100 µM | SW-620 > 100 µM | UO-31 > 100 µM

CCCCC1(C)C=C/C(=C2/C(=O)O/C(=C\C(=O)O)C2=O)O1 (stereo not drawn)
inactive: CCRF-CEM > 100 µM | COLO 205 > 100 µM | HT-29 > 100 µM | IGROV-1 > 100 µM | M14 > 100 µM | Malme-3M > 100 µM | SK-MEL-28 > 100 µM | SK-MEL-5 > 100 µM | SN12C > 100 µM | SNB-19 > 100 µM | SNB-75 > 100 µM | SW-620 > 100 µM | UO-31 > 100 µM
> 100 µM: HCT-15

O=[N+]([O-])c1cccc(C2ON2C2CCCCC2)c1 (stereo not drawn)
inactive: CCRF-CEM 4.88 µM | COLO 205 17.6 µM | HOP-92 45.9 µM | HT-29 11.5 µM | IGROV-1 20 µM | M14 18.5 µM | Malme-3M 22.8 µM | SF-268 23.3 µM | SK-MEL-28 36.9 µM | SK-MEL-5 17.7 µM | SN12C 18.3 µM | SNB-19 29.1 µM | SNB-75 38.5 µM | SW-620 10 µM | UO-31 22.6 µM
16.9 µM: HCT-15

CCOC(=O)/C(C#N)=C\C=C1/C=CN=C2NCCN21
inactive: CCRF-CEM > 100 µM | COLO 205 > 100 µM | HT-29 > 100 µM | IGROV-1 > 100 µM | M14 > 100 µM | Malme-3M > 100 µM | SF-268 > 100 µM | SK-MEL-28 > 100 µM | SK-MEL-5 > 100 µM | SN12C > 100 µM | SNB-19 > 100 µM | SNB-75 14.4 µM | SW-620 > 100 µM | UO-31 > 100 µM
> 100 µM: HCT-15

OCc1c[te]c(-c2ccccc2)c1
inactive: CCRF-CEM 17.5 µM | HT-29 > 10 µM | IGROV-1 > 100 µM | M14 84.7 µM | Malme-3M > 100 µM | SK-MEL-28 63.1 µM | SK-MEL-5 30.7 µM | SN12C 16 µM | SNB-75 44.5 µM | SW-620 > 100 µM | UO-31 23.3 µM
20.2 µM: HCT-15

COc1cc(C2C(C(=O)Nc3ccccc3)=C(C)NC(C)=C2C(=O)Nc2ccccc2)ccc1O
43.5 µM: HCT-15
inactive: COLO 205 24.2 µM | HOP-92 19.3 µM | HT-29 18.7 µM | IGROV-1 37 µM | Malme-3M 41.2 µM | SF-268 > 100 µM | SK-MEL-28 46.7 µM | SN12C 39.5 µM | SNB-19 33.7 µM | SNB-75 13.6 µM | SW-620 37.9 µM | UO-31 97.1 µM

O=C1C=CC(=O)c2cc(Sc3ccccc3)c(=O)c(Sc3ccccc3)cc21
50.6 µM: HCT-15
inactive: CCRF-CEM 17.3 µM | COLO 205 73.3 µM | HOP-92 18.9 µM | HT-29 > 100 µM | IGROV-1 68.5 µM | M14 > 100 µM | SF-268 42 µM | SK-MEL-28 95.1 µM | SK-MEL-5 > 100 µM | SN12C > 100 µM | SNB-19 > 100 µM | SNB-75 85.3 µM | SW-620 > 100 µM | UO-31 37.8 µM

CCCCCC/C(CC(=O)CCC(=O)NCCc1ccccc1)=N\Nc1ccc([N+](=O)[O-])cc1[N+](=O)[O-]
69.3 µM: HCT-15
inactive: CCRF-CEM 22.1 µM | COLO 205 64.3 µM | HOP-92 41.7 µM | HT-29 > 100 µM | IGROV-1 > 100 µM | M14 > 100 µM | Malme-3M > 100 µM | SF-268 71.6 µM | SK-MEL-28 > 100 µM | SK-MEL-5 70.1 µM | SN12C 82 µM | SNB-19 > 100 µM | SW-620 68.1 µM | UO-31 61.9 µM

COC1=CC(C2c3cc4c(cc3[C@@H](Nc3ccc(F)cc3)C3COC(=O)[C@H]23)OCO4)=CC(=O)C1=O (stereo partly drawn)
11.1 µM: HCT-15
inactive: CCRF-CEM 2.49 µM | COLO 205 15.7 µM | HOP-92 6.92 µM | HT-29 20.2 µM | IGROV-1 14.4 µM | M14 7.82 µM | Malme-3M 13.7 µM | SF-268 8.05 µM | SK-MEL-28 19.2 µM | SK-MEL-5 9.35 µM | SN12C 4.32 µM | SNB-19 5.57 µM | SNB-75 6.81 µM | SW-620 12.7 µM | UO-31 7.66 µM

CN(C)c1ccc(-c2cc(O)c3cc4c(cc3n2)OCO4)cc1
inactive: CCRF-CEM > 100 µM | COLO 205 > 100 µM | HT-29 > 100 µM | IGROV-1 > 100 µM | M14 > 100 µM | Malme-3M > 100 µM | SF-268 > 100 µM | SK-MEL-28 > 100 µM | SK-MEL-5 > 100 µM | SN12C > 100 µM | SNB-19 > 100 µM | SNB-75 4.33 µM | SW-620 > 100 µM | UO-31 > 100 µM
> 100 µM: HCT-15
